According to US20130338106A1, “COMPOUNDS INHIBITING LEUCINE-RICH REPEAT KINASE ENZYME ACTIVITY” (priority 2011, published 2013):
Read-outs that look alike come from different tables or passages of the source.

Legend:
Format in all cases: biochemical
PAK3 = molecular target: T1, PAK3 (Homo sapiens, UniProt O75914); assay: ProfilerPro Kinase Selectivity, PAK3; details: tested at 10 uM, read-out: percent inhibition of the kinase activity
T1 construct: purchased Caliper LifeSciences
Protocol: (§1) Kinome selectivity profiling was performed using two example compounds according to the manufacturer's instructions using Caliper LifeSciences' ProfilerPro Kinase Selectivity Assay Kits. Compounds prepared in Examples 1 and 7 were tested at 10 uM and data were recorded using the Caliper LabChip® EZ Reader™. Each compounds' percent inhibition of the kinase activity measured in this manner is reported in the following lists.

AURA = molecular target: T2, AURA (Homo sapiens, UniProt O14965); assay: ProfilerPro Kinase Selectivity, AURA; details: tested at 10 uM, read-out: percent inhibition of the kinase activity
T2 construct: purchased Caliper LifeSciences
Protocol: as §1

TYRO3 = molecular target: T3, TYRO3 (Homo sapiens, UniProt Q06418); assay: ProfilerPro Kinase Selectivity, TYRO3; details: tested at 10 uM, read-out: percent inhibition of the kinase activity
T3 construct: purchased Caliper LifeSciences
Protocol: as §1

FLT1 = molecular target: T4, FLT1 (Homo sapiens, UniProt P17948); assay: ProfilerPro Kinase Selectivity, FLT1; details: tested at 10 uM, read-out: percent inhibition of the kinase activity
T4 construct: purchased Caliper LifeSciences
Protocol: as §1

CHK1 = molecular target: T5, CHK1 (Homo sapiens, UniProt O14757); assay: ProfilerPro Kinase Selectivity, CHK1; details: tested at 10 uM, read-out: percent inhibition of the kinase activity
T5 construct: purchased Caliper LifeSciences
Protocol: as §1

EPHA4 = molecular target: T6, EPHA4 (Homo sapiens, UniProt P54764); assay: ProfilerPro Kinase Selectivity, EPHA4; details: tested at 10 uM, read-out: percent inhibition of the kinase activity
T6 construct: purchased Caliper LifeSciences
Protocol: as §1

PHKG2 = molecular target: T7, PHKG2 (Homo sapiens, UniProt P15735); assay: ProfilerPro Kinase Selectivity, PHKG2; details: tested at 10 uM, read-out: percent inhibition of the kinase activity
T7 construct: purchased Caliper LifeSciences
Protocol: as §1

TEC = molecular target: T8, TEC (Homo sapiens, UniProt P42680); assay: ProfilerPro Kinase Selectivity, TEC; details: tested at 10 uM, read-out: percent inhibition of the kinase activity
T8 construct: purchased Caliper LifeSciences
Protocol: as §1

KIT = molecular target: T9, KIT (Homo sapiens, UniProt P10721); assay: ProfilerPro Kinase Selectivity, KIT; details: tested at 10 uM, read-out: percent inhibition of the kinase activity
T9 construct: purchased Caliper LifeSciences
Protocol: as §1

ERK1 = molecular target: T10, ERK1 (Homo sapiens, UniProt P27361); assay: ProfilerPro Kinase Selectivity, ERK1; details: tested at 10 uM, read-out: percent inhibition of the kinase activity
T10 construct: purchased Caliper LifeSciences
T10 sequence (P27361 whole entry, species assumed): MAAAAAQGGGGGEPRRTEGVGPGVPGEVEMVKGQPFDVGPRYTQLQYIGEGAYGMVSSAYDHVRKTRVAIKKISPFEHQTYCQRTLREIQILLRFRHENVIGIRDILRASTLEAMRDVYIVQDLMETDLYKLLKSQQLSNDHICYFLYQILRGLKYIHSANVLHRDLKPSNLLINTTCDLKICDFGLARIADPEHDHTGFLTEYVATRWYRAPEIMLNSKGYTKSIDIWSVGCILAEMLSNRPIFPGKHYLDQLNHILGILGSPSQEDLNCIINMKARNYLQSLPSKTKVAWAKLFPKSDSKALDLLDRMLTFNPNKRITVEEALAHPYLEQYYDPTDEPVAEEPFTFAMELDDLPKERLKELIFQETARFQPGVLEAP
Protocol: as §1

ERK2 = molecular target: T11, ERK2 (Homo sapiens, UniProt P28482); assay: ProfilerPro Kinase Selectivity, ERK2; details: tested at 10 uM, read-out: percent inhibition of the kinase activity
T11 construct: purchased Caliper LifeSciences
Protocol: as §1

SGK = molecular target: T12, SGK (Homo sapiens, UniProt O00141); assay: ProfilerPro Kinase Selectivity, SGK; details: tested at 10 uM, read-out: percent inhibition of the kinase activity
T12 construct: purchased Caliper LifeSciences
T12 sequence (O00141 whole entry, species assumed): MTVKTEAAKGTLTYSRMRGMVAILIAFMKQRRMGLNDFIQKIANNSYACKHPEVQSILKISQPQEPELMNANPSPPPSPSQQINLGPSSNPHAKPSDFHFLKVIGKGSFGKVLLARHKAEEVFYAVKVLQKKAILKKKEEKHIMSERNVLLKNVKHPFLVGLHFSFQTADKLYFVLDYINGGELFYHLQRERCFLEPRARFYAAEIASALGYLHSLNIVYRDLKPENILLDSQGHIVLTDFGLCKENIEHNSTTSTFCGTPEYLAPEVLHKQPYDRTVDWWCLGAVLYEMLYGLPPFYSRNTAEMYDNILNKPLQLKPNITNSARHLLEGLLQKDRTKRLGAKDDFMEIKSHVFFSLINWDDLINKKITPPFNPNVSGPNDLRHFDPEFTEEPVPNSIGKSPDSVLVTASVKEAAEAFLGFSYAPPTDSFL
Protocol: as §1

EPHB2 = molecular target: T13, EPHB2 (Homo sapiens, UniProt P29323); assay: ProfilerPro Kinase Selectivity, EPHB2; details: tested at 10 uM, read-out: percent inhibition of the kinase activity
T13 construct: purchased Caliper LifeSciences
Protocol: as §1

LRRK2 (G2019S) = molecular target: T14, LRRK2 (G2019S) (Homo sapiens, UniProt Q5S007, G2019S); assay: ProfilerPro Kinase Selectivity, LRRK2 (G2019S); details: read-out: percent inhibition of the kinase activity
T14 construct: purchased Caliper LifeSciences
Protocol: Kinome selectivity profiling was performed using two example compounds according to the manufacturer's instructions using Caliper LifeSciences' ProfilerPro Kinase Selectivity Assay Kits. Compounds prepared in Examples 1 and 7 were tested at 10 uM and data were recorded using the Caliper LabChip® EZ Reader™.

AKT1 = molecular target: T15, AKT1 (Homo sapiens, UniProt P31749); assay: ProfilerPro Kinase Selectivity, AKT1; details: tested at 10 uM, read-out: percent inhibition of the kinase activity
T15 construct: purchased Caliper LifeSciences
Protocol: as §1

LCK = molecular target: T16, LCK (Homo sapiens, UniProt P06239); assay: ProfilerPro Kinase Selectivity, LCK; details: tested at 10 uM, read-out: percent inhibition of the kinase activity
T16 construct: purchased Caliper LifeSciences
Protocol: as §1

PKD1 = molecular target: T17, PKD1 (Homo sapiens, UniProt Q15139); assay: ProfilerPro Kinase Selectivity, PKD1; details: tested at 10 uM, read-out: percent inhibition of the kinase activity
T17 construct: purchased Caliper LifeSciences
T17 sequence (Q15139 whole entry): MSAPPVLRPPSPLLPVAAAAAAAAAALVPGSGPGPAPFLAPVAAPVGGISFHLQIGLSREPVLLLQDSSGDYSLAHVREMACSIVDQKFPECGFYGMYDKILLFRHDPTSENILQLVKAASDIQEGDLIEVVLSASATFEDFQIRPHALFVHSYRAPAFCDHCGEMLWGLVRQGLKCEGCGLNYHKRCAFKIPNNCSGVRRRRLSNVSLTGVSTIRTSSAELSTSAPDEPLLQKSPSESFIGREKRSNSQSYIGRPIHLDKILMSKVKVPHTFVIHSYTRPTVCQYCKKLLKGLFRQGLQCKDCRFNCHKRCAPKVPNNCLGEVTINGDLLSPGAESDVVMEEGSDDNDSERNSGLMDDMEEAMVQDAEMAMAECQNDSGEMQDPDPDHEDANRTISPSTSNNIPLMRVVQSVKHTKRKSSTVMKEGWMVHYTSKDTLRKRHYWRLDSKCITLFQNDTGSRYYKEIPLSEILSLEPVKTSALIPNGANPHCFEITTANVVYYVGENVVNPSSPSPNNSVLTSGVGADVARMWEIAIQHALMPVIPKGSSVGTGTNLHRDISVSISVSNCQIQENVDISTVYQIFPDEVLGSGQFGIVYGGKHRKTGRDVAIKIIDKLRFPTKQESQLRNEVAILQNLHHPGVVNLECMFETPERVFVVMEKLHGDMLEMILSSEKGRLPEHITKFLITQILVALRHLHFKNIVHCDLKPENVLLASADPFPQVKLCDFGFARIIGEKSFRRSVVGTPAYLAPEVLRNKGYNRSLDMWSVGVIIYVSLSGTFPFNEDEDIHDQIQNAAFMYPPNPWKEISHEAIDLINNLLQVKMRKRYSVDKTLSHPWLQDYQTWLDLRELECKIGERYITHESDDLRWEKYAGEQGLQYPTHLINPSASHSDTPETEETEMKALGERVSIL
Protocol: as §1

GSK3A = molecular target: T18, GSK3A (Homo sapiens, UniProt P49840); assay: ProfilerPro Kinase Selectivity, GSK3A; details: tested at 10 uM, read-out: percent inhibition of the kinase activity
T18 construct: purchased Caliper LifeSciences
Protocol: as §1

DYRK3 = molecular target: T19, DYRK3 (Homo sapiens, UniProt O43781); assay: ProfilerPro Kinase Selectivity, DYRK3; details: tested at 10 uM, read-out: percent inhibition of the kinase activity
T19 construct: purchased Caliper LifeSciences
Protocol: as §1

PKG1B = molecular target: T20, PKG1B (Homo sapiens, UniProt Q13976); assay: ProfilerPro Kinase Selectivity, PKG1B; details: tested at 10 uM, read-out: percent inhibition of the kinase activity
T20 construct: purchased Caliper LifeSciences
Protocol: as §1

LOK = molecular target: T21, LOK (Homo sapiens, UniProt O94804); assay: ProfilerPro Kinase Selectivity, LOK; details: tested at 10 uM, read-out: percent inhibition of the kinase activity
T21 construct: purchased Caliper LifeSciences
T21 sequence (O94804 whole entry, species assumed): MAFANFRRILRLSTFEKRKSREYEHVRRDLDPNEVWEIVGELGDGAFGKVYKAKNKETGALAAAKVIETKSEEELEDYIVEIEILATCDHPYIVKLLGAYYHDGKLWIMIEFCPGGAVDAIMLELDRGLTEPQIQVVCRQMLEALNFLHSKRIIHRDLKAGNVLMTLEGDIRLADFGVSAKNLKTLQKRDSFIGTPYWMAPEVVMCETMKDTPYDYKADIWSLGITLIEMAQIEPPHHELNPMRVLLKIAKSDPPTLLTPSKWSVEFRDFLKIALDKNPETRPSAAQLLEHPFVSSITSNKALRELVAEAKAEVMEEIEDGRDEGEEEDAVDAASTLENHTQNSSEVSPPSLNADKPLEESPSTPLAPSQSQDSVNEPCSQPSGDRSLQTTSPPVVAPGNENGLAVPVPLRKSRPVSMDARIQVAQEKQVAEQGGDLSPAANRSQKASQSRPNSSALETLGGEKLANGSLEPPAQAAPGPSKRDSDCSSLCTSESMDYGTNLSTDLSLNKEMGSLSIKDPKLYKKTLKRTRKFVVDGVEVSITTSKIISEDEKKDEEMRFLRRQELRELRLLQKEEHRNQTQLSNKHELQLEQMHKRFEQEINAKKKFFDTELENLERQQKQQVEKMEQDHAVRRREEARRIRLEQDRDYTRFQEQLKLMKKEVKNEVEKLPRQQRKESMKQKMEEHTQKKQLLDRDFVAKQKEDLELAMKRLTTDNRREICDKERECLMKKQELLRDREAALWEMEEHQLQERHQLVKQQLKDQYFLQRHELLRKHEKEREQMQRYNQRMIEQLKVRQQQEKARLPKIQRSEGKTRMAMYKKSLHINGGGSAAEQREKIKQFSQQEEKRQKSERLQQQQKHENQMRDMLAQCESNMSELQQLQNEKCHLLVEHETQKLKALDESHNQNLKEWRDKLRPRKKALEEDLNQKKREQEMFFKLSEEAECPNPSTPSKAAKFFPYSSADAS
Protocol: as §1

DDR2 = molecular target: T22, DDR2 (Homo sapiens, UniProt Q16832); assay: ProfilerPro Kinase Selectivity, DDR2; details: tested at 10 uM, read-out: percent inhibition of the kinase activity
T22 construct: purchased Caliper LifeSciences
T22 sequence (Q16832 22-855, species assumed): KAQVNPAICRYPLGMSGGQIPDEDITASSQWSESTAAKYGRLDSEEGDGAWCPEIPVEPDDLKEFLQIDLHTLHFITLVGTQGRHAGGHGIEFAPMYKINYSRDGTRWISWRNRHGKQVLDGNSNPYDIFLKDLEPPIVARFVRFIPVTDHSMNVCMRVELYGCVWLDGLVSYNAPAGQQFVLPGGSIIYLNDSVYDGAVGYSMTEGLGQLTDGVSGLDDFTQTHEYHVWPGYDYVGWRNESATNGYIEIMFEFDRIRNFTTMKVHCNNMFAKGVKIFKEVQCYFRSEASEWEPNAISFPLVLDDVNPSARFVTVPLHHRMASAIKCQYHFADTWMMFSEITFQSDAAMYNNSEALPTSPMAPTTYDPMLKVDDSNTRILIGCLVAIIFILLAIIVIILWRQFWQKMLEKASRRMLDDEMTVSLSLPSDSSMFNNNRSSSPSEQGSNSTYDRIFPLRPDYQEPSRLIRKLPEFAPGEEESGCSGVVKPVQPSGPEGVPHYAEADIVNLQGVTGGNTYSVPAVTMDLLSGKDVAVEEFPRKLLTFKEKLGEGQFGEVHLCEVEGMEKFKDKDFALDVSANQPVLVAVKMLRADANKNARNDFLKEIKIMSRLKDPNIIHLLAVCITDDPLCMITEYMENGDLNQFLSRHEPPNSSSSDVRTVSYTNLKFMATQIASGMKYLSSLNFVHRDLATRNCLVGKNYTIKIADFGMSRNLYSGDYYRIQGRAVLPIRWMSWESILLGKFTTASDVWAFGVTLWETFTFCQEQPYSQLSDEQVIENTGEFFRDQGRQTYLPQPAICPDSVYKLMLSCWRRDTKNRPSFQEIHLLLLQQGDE
Protocol: as §1

MSK2 = molecular target: T23, MSK2 (Homo sapiens, UniProt O75676); assay: ProfilerPro Kinase Selectivity, MSK2; details: tested at 10 uM, read-out: percent inhibition of the kinase activity
T23 construct: purchased Caliper LifeSciences
Protocol: as §1

EPHB1 = molecular target: T24, EPHB1 (Homo sapiens, UniProt P54762); assay: ProfilerPro Kinase Selectivity, EPHB1; details: tested at 10 uM, read-out: percent inhibition of the kinase activity
T24 construct: purchased Caliper LifeSciences
T24 sequence (P54762 18-984, species assumed): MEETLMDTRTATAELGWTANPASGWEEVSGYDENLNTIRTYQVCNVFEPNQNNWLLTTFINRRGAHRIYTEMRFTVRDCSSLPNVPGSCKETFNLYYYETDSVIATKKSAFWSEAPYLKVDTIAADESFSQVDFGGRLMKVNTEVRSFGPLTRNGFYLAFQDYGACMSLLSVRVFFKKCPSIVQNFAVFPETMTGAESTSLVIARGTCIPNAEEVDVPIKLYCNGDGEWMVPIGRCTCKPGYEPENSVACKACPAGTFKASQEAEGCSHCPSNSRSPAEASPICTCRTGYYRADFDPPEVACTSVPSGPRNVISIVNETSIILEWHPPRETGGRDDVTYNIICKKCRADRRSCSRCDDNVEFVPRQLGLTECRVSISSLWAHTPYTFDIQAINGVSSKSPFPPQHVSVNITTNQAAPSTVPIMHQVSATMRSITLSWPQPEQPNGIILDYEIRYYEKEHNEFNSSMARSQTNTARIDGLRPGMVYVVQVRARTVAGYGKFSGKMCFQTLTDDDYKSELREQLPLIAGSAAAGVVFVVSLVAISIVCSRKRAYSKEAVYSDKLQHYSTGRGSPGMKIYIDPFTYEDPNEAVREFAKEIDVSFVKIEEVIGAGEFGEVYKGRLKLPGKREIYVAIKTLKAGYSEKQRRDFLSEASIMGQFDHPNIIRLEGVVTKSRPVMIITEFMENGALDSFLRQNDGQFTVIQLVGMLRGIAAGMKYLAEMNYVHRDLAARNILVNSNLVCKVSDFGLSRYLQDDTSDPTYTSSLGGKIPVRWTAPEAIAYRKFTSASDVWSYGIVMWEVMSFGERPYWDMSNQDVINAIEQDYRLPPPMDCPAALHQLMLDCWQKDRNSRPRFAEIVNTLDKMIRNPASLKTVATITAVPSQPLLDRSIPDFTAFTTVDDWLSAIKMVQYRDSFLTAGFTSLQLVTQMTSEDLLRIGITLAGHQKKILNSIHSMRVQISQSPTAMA
Protocol: as §1

DCAMKL2 = molecular target: T25, DCAMKL2 (Homo sapiens, UniProt Q8N568); assay: ProfilerPro Kinase Selectivity, DCAMKL2; details: tested at 10 uM, read-out: percent inhibition of the kinase activity
T25 construct: purchased Caliper LifeSciences
Protocol: as §1

KIT T670I = molecular target: T26, KIT T670I (Homo sapiens, UniProt P10721, T670I); assay: ProfilerPro Kinase Selectivity, KIT T670I; details: tested at 10 uM, read-out: percent inhibition of the kinase activity
T26 construct: purchased Caliper LifeSciences
Protocol: as §1

HIPK1 = molecular target: T27, HIPK1 (Homo sapiens, UniProt Q86Z02); assay: ProfilerPro Kinase Selectivity, HIPK1; details: tested at 10 uM, read-out: percent inhibition of the kinase activity
T27 construct: purchased Caliper LifeSciences
Protocol: as §1

EGFR T790M = molecular target: T28, EGFR T790M (Homo sapiens, UniProt P00533, T790M); assay: ProfilerPro Kinase Selectivity, EGFR T790M; details: tested at 10 uM, read-out: percent inhibition of the kinase activity
T28 construct: purchased Caliper LifeSciences
Protocol: as §1

ROS = molecular target: T29, ROS (Homo sapiens, UniProt P08922); assay: ProfilerPro Kinase Selectivity, ROS; details: tested at 10 uM, read-out: percent inhibition of the kinase activity
T29 construct: purchased Caliper LifeSciences
Protocol: as §1

MAPKAPK5 = molecular target: T30, MAPKAPK5 (Homo sapiens, UniProt Q8IW41); assay: ProfilerPro Kinase Selectivity, MAPKAPK5; details: tested at 10 uM, read-out: percent inhibition of the kinase activity
T30 construct: purchased Caliper LifeSciences
Protocol: as §1

TSSK1 = molecular target: T31, TSSK1 (Homo sapiens, UniProt Q9BXA7); assay: ProfilerPro Kinase Selectivity, TSSK1; details: tested at 10 uM, read-out: percent inhibition of the kinase activity
T31 construct: purchased Caliper LifeSciences
Protocol: as §1

AURC = molecular target: T32, AURC (Homo sapiens, UniProt Q9UQB9); assay: ProfilerPro Kinase Selectivity, AURC; details: tested at 10 uM, read-out: percent inhibition of the kinase activity
T32 construct: purchased Caliper LifeSciences
Protocol: as §1

CAMK4 = molecular target: T33, CAMK4 (Homo sapiens, UniProt Q16566); assay: ProfilerPro Kinase Selectivity, CAMK4; details: tested at 10 uM, read-out: percent inhibition of the kinase activity
T33 construct: purchased Caliper LifeSciences
Protocol: as §1

GCK = molecular target: T34, GCK (Homo sapiens, UniProt Q12851); assay: ProfilerPro Kinase Selectivity, GCK; details: tested at 10 uM, read-out: percent inhibition of the kinase activity
T34 construct: purchased Caliper LifeSciences
Protocol: as §1

PDGFRB = molecular target: T35, PDGFRB (Homo sapiens, UniProt P09619); assay: ProfilerPro Kinase Selectivity, PDGFRB; details: tested at 10 uM, read-out: percent inhibition of the kinase activity
T35 construct: purchased Caliper LifeSciences
Protocol: as §1

FGFR4 = molecular target: T36, FGFR4 (Homo sapiens, UniProt P22455); assay: ProfilerPro Kinase Selectivity, FGFR4; details: tested at 10 uM, read-out: percent inhibition of the kinase activity
T36 construct: purchased Caliper LifeSciences
Protocol: as §1

CAMK2B = molecular target: T37, CAMK2B (Homo sapiens, UniProt Q13554); assay: ProfilerPro Kinase Selectivity, CAMK2B; details: tested at 10 uM, read-out: percent inhibition of the kinase activity
T37 construct: purchased Caliper LifeSciences
Protocol: as §1

T1 sequence (O75914 whole entry, species assumed): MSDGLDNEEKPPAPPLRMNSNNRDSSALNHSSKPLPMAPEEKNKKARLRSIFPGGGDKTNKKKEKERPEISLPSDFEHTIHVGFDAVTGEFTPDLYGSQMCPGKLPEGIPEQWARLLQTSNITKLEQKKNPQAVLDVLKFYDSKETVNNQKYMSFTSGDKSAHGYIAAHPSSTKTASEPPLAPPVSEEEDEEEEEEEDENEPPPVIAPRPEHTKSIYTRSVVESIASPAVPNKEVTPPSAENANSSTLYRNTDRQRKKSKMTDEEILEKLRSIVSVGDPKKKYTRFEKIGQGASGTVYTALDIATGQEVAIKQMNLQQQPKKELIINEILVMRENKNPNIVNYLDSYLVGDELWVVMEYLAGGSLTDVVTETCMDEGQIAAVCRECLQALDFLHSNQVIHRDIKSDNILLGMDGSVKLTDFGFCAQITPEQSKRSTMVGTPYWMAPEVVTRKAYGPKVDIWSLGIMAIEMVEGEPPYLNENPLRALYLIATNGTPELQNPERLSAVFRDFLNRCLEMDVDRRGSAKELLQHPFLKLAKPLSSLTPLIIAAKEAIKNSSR

CSc1sc(-c2cc[nH]n2)c2c1C(=O)CCC2 [Example 1, 3-(Methylsulfanyl)-1-(1H-pyrazol-3-yl)-6,7-dihydro-2-benzothiophen-4(5H)-one]
inhibition at 10 µM (PAK3): -13.1%
inhibition at 10 µM (AURA): 44%
inhibition at 10 µM (TYRO3): 8.6%
inhibition at 10 µM (FLT1): 1.2%
inhibition at 10 µM (CHK1): 0%
inhibition at 10 µM (EPHA4): -0.8%
inhibition at 10 µM (PHKG2): -5.5%
inhibition at 10 µM (TEC): 0.6%
inhibition at 10 µM (KIT): 19.2%
inhibition at 10 µM (ERK1): -2%
inhibition at 10 µM (ERK2): 4.5%
inhibition at 10 µM (SGK): -5.1%
inhibition at 10 µM (EPHB2): 2.6%
inhibition at 10 µM (LRRK2 (G2019S)): 88.3%
inhibition at 10 µM (AKT1): -3.2%
inhibition at 10 µM (LCK): 4%
inhibition at 10 µM (PKD1): 5.5%
inhibition at 10 µM (GSK3A): 8.5%
inhibition at 10 µM (DYRK3): 11.7%
inhibition at 10 µM (PKG1B): 10.8%
inhibition at 10 µM (LOK): 7.5%
inhibition at 10 µM (DDR2): 0.8%
inhibition at 10 µM (MSK2): 4.2%
inhibition at 10 µM (EPHB1): 3%
inhibition at 10 µM (DCAMKL2): -0.8%
inhibition at 10 µM (KIT T670I): 10.6%
inhibition at 10 µM (HIPK1): 15.9%
inhibition at 10 µM (EGFR T790M): 1.8%
inhibition at 10 µM (ROS): 33.7%
inhibition at 10 µM (MAPKAPK5): 4.4%
inhibition at 10 µM (TSSK1): 24%
inhibition at 10 µM (AURC): 27.9%
inhibition at 10 µM (CAMK4): 20.1%
inhibition at 10 µM (GCK): 6.3%
inhibition at 10 µM (PDGFRB): 22.1%
inhibition at 10 µM (FGFR4): 5.9%
inhibition at 10 µM (CAMK2B): 6.3%

CC1(C)CC(=O)c2c(SC3CCCC3)sc(-c3cc[nH]n3)c2C1 [Example 7, 3-(Cyclopentylsulfanyl)-6,6-dimethyl-1-(1H-pyrazol-3-yl)-6,7-dihydro-2-benzothiophen-4(5H)-one]
inhibition at 10 µM (PAK3): -170%
inhibition at 10 µM (AURA): 11%
inhibition at 10 µM (TYRO3): 10.5%
inhibition at 10 µM (FLT1): 11.8%
inhibition at 10 µM (CHK1): 8%
inhibition at 10 µM (EPHA4): -3.5%
inhibition at 10 µM (PHKG2): -2%
inhibition at 10 µM (TEC): -3.2%
inhibition at 10 µM (KIT): -7.3%
inhibition at 10 µM (ERK1): 1.9%
inhibition at 10 µM (ERK2): -0.9%
inhibition at 10 µM (SGK): -1.3%
inhibition at 10 µM (EPHB2): 2.3%
inhibition at 10 µM (LRRK2 (G2019S); LRRK2 (G2019S), tested at 10 uM): 78.3%
inhibition at 10 µM (AKT1): 0.1%
inhibition at 10 µM (LCK): 23.3%
inhibition at 10 µM (PKD1): -10.6%
inhibition at 10 µM (GSK3A): -8.3%
inhibition at 10 µM (DYRK3): -8.5%
inhibition at 10 µM (PKG1B): -0.6%
inhibition at 10 µM (LOK): -32.6%
inhibition at 10 µM (DDR2): -3.9%
inhibition at 10 µM (MSK2): 10.4%
inhibition at 10 µM (EPHB1): 3.3%
inhibition at 10 µM (DCAMKL2): -4.2%
inhibition at 10 µM (KIT T670I): 3%
inhibition at 10 µM (HIPK1): -1%
inhibition at 10 µM (EGFR T790M): -1.9%
inhibition at 10 µM (ROS): 42.7%
inhibition at 10 µM (MAPKAPK5): 1.9%
inhibition at 10 µM (TSSK1): 8.3%
inhibition at 10 µM (AURC): 3.5%
inhibition at 10 µM (CAMK4): -1.5%
inhibition at 10 µM (GCK): 11.8%
inhibition at 10 µM (PDGFRB): -1.4%
inhibition at 10 µM (FGFR4): -0.1%
inhibition at 10 µM (CAMK2B): 6%
